Results from patent US20110117588A1, “METHOD OF PREDICTING DRUG-INDUCED PHOSPHOLIPIDOSIS” (KYUSHU UNIVERSITY, NATIONAL UNIVERSITY CORPORATION, priority 2007, published 2011).
Read-outs that look alike come from different tables or passages of the source.

Experiments:
NRK cells [1] = test: β-hexosaminidase activity in the medium after exposure of NRK cells
Source text: On the other hand, the activity of lysosomal enzyme can be measured using an activity measurement method by known per se for each enzyme. For example, lysosomal enzyme can be quantified by contacting a sample with a substrate compound for a lysosomal enzyme, which emits fluorescence or develops color by an enzyme reaction, and measuring the intensity of the resulting fluorescence or developed color by a fluorometer, spectrophotometer and the like. For example, as a measurement method of β-hexosaminidase, β-galactosidase, β-glucuronidase or β-mannosidase, the method described in The EMBO Journal, 12: 5219-5223 (1993) can be mentioned, as a measurement method of cathepsin D, the method described in J. Biochem, 125: 1137-1143 (1999) can be mentioned, and as a measurement method of cathepsin B/L, the method described in Methods in Enzymology, 80: 535-561 (1981) can be mentioned.
Furthermore, the activity of β-hexosaminidase in the medium was measured by a conventional method.

NRK cells [2] = test: Intracellular and extracellular cathepsin D and cathepsin L levels by Western blotting; assay type: cell-based, rat
Procedure: In the case of cathepsin D (CTD), it is biosynthesized as an about 45 kDa proenzyme in rat cell (NRK), and processed in the acidic environment of lysosome to become an about 43 kDa mature enzyme.
Therefore, NRK cells were exposed to 0 (control), 5, 10, 20, 40 and 80 μM of AD for 24 hr, and lysosomal enzyme (CTD and cathepsin L (CTL)) levels in the cell and medium were measured by Western blotting using an antibody to these enzymes. To be specific, immunoprecipitates against anti-CTD antibody in cell lysate and medium or the cell lysate and medium for CTL were subjected to Western blot analysis using an anti-CTD antibody or anti-CTL antibody. […] Therefore, it was also shown that increased lysosomal enzyme in the medium was not caused by extracellular leakage due to cell damage and the like, but by selective extracellular secretion thereof.
(§1) On the other hand, CTL is biosynthesized as an about 39 kDa proenzyme, and converted to a 30 kDa single strand intermediate enzyme and a 23 kDa and 7 kDa double stranded mature enzyme during the process of intracellular transport. […] While CTD increased the enzyme activity in the medium in an AD dose-dependent manner, CTL caused no change. The reason therefor is considered to be the measurement of CTD activity at pH 4.0 where autocatalytic processing occurs, and the measurement of CTL activity at pH 6.0 where processing scarcely occurs.

NRK cells [3] = test: Localization of MPR in NRK cells by confocal laser microscope with antibody; conditions: 24 hr exposure, concentration at which localization altered
NRK cells [4] = test system: NRK cells
NRK cells [5] = test: Swelling of late endosome/lysosome (LGP85 staining) and phospholipid accumulation (Nile Red) in NRK cells; assay type: cell-based, rat
Procedure: The cells were cultured in a DMEM medium supplemented with lipoprotein-deficient serum to 10% instead of normal fetal bovine serum, and morphological changes of lysosome and the presence or absence of phospholipid accumulation due to exposure to AD under the conditions free of extracellular supply of lipoprotein were examined.

NRK cells [6] = test: Extracellular and intracellular lysosomal enzyme activity after exposure of NRK cells; assay type: cell-based, rat; conditions: 24 hr
Procedure: NRK cells were exposed to 0 (solvent control), 5, 10, 20, 40 and 80 μM of AD for 24 hr, and lysosomal enzyme activities in the cell and medium were measured by a conventional method.
as §1

NRK cells [7] = test: Intracellular LC3 level by Western blotting and confocal microscopy; assay type: cell-based; conditions: 20 μM; for LC3-II level: Western blot
Procedure: NRK cells were exposed to 20 μM of AD for 1, 3, 6, 12 and 24 hr, and the level of LC3 (microtuble-associated protein 1 light chain 3), which is an autophagy marker, in each cell was measured by Western blotting using an antibody to the protein. That is, cell lysate was subjected to Western blot analysis using an anti-LC3 antibody.
NRK cells were exposed to various PLIDs for 24 hr, and the intracellular level of LC3 was measured by western blotting.

Q: How did the β-hex activity increase (NRK cells [1]; NRK cells, 24 hr exposure, concentration at which β-hexosaminidase activity in medium increased) turn out when Cl.N [NH4Cl, ammonium chloride] was run?
A: >1000 µM

Q: And the “ratio of intracellular cathepsin D proenzyme” value (NRK cells [2]; NRK cells, 24 hr, Western blot of cell lysate immunoprecipitate)?
A: the ratio of intracellular proenzyme increased

Q: What about the “cathepsin D proenzyme in the medium” value (NRK cells [2]; NRK cells, 24 hr, Western blot of medium immunoprecipitate) of the same compound?
A: the amount of proenzyme secreted in the medium increased

Q: And the “alteration of MPR localization” value (NRK cells [3])?
A: >5 mM

Q: How did the β-hex activity increase (NRK cells [1]; rat, 24 h) turn out when O=C(CCCN1CCC(O)(c2ccc(Cl)cc2)CC1)c1ccc(F)cc1 [haloperidol] was run?
A: >10 µM

Q: And the “alteration of MPR localization” value (NRK cells [4]; rat, 24 h)?
A: >20 µM

Q: With CCN(CC)CCOc1ccc2c(c1)C(=O)c1cc(OCCN(CC)CC)ccc1-2 [tilorone] as the compound, how does the β-hex activity increase (NRK cells [1]; rat, 24 h) read?
A: >2.5 µM

Q: And the “cathepsin D proenzyme in the medium” value (NRK cells [2])?
A: the amount of proenzyme secreted in the medium increased

Q: And the “ratio of intracellular cathepsin D proenzyme” value (NRK cells [2])?
A: the ratio of intracellular proenzyme increased

Q: And the “alteration of MPR localization” value (NRK cells [4]; rat, 24 h)?
A: >5 µM

Q: How did the β-hex activity increase (NRK cells [1]; rat, 24 h) turn out when C1CCC(C(CC2CCCCN2)C2CCCCC2)CC1 (stereo not drawn) [perhexiline] was run?
A: 5 µM

Q: What about the “alteration of MPR localization” value (NRK cells [4]; rat, 24 h) of the same compound?
A: 2.5 µM

Q: For CC1(C)S[C@@H]2[C@H](NC(=O)[C@H](N)c3ccc(O)cc3)C(=O)N2[C@H]1C(=O)O [amoxicillin], which β-hex activity increase (NRK cells [1]) is on record?
A: none

Q: And the “alteration of MPR localization” value (NRK cells [4])?
A: none

Q: CN(C)CCCN1c2ccccc2Sc2ccc(Cl)cc21 [chlorpromazine] was tested. Which β-hex activity increase (NRK cells [1]; rat, 24 h) did it give?
A: 20 µM

Q: With C[C@H](CS)C(=O)N1CCC[C@H]1C(=O)O [captopril] as the compound, how does the β-hex activity increase (NRK cells [1]) read?
A: none

Q: Which β-hex activity increase (NRK cells [1]; rat, 24 h) does the source give for CCN(CC)CCO[C@H]1CC[C@@]2(C)C(=CC[C@@H]3[C@@H]2CC[C@]2(C)C(=O)CC[C@@H]32)C1 [U18666A] here?
A: 3 µg/mL

Q: What about the “alteration of MPR localization” value (NRK cells [4]; rat, 24 h) of the same compound?
A: 3 µg/mL

Q: Which results are given for CC/C(=C(\c1ccccc1)c1ccc(OCCN(C)C)cc1)c1ccccc1 [tamoxifen]?
A: β-hex activity increase (NRK cells [1]; rat, 24 h): >10 µM; alteration of MPR localization (NRK cells [4]; rat, 24 h): 10 µM

Q: Which β-hex activity increase (NRK cells [1]; rat, 24 h) does the source give for CNCCCC12CCC(c3ccccc31)c1ccccc12 [maprotiline] here?
A: >20 µM

Q: What about the “alteration of MPR localization” value (NRK cells [4]; rat, 24 h) of the same compound?
A: 20 µM

Q: With CC[C@H]1OC(=O)[C@H](C)[C@@H](O[C@H]2C[C@@](C)(OC)[C@@H](O)[C@H](C)O2)[C@H](C)[C@@H](O[C@@H]2O[C@H](C)C[C@H](N(C)C)[C@H]2O)[C@](C)(O)C[C@@H](C)C(=O)[C@H](C)[C@@H](O)[C@]1(C)O [erythromycin] as the compound, how does the β-hex activity increase (NRK cells [1]; rat, 24 h) read?
A: >400 µM

Q: With C=C[C@H]1C[N@@]2CC[C@H]1C[C@@H]2[C@@H](O)c1ccnc2ccc(OC)cc12 [quinidine] as the compound, how does the β-hex activity increase (NRK cells [1]; rat, 24 h) read?
A: 100 µM

Q: Which results are given for CC(=O)Oc1ccccc1C(=O)O [aspirin]?
A: β-hex activity increase (NRK cells [1]): none; alteration of MPR localization (NRK cells [4]): none

Q: Which results are given for CSc1ccc2c(c1)N(CCC1CCCCN1C)c1ccccc1S2 (stereo not drawn) [thioridazine]?
A: β-hex activity increase (NRK cells [1]; rat, 24 h): 10 µM; alteration of MPR localization (NRK cells [4]; rat, 24 h): 10 µM

Q: How did the β-hex activity increase (NRK cells [1]; rat, 24 h) turn out when CCCCc1oc2ccccc2c1C(=O)c1cc(I)c(OCCN(CC)CC)c(I)c1 [amiodarone] was run?
A: >10 µM

Q: And the accumulation of phospholipid (NRK cells [5]; NRK cells in DMEM with 10% lipoprotein-deficient serum)?
A: accumulation of phospholipid was found at the site

Q: What about the “late endosome/lysosome morphology (LGP85)” value (NRK cells [5]; NRK cells in DMEM with 10% lipoprotein-deficient serum, various concentrations, 24 hr) of the same compound?
A: enlargement of late endosome/lysosome occurred in an AD dose-dependent manner

Q: And the “accumulation of phospholipid (Nile Red staining)” value (NRK cells [5]; NRK cells, 24 hr exposure)?
A: accumulation of phospholipid was found

Q: And the “late endosome/lysosome morphology (LGP85 antibody)” value (NRK cells [5]; NRK cells, 24 hr exposure)?
A: enlarged

Q: And the “activity of α-glucosidase (endoplasmic reticulum enzyme)” value (NRK cells [6]; 5-80 μM)?
A: changed only at 80 μM

Q: And the “intracellular lysosomal enzyme activity” value (NRK cells [6]; 5-80 μM)?
A: decreased

Q: And the “lysosomal enzyme activity in the medium” value (NRK cells [6]; 5-80 μM)?
A: increased in an AD dose-dependent manner

Q: And the “CTL activity in the medium” value (NRK cells [6]; 5-80 μM, measured at pH 6.0)?
A: changed only at 80 μM

Q: What about the “intracellular CTL activity” value (NRK cells [6]; 5-80 μM, measured at pH 6.0) of the same compound?
A: decreased in a dose-dependent manner

Q: What about the concentration showing cytotoxicity (NRK cells [6]) of the same compound?
A: 80 µM

Q: What about the “CTL proenzyme in the medium” value (NRK cells [2]) of the same compound?
A: only proenzyme increased in an AD dose-dependent manner

Q: And the “cathepsin D proenzyme in the medium” value (NRK cells [2])?
A: only proenzyme increased in an AD dose-dependent manner

Q: What about the “ratio of CTL mature enzyme in the cell” value (NRK cells [2]) of the same compound?
A: decreased in an AD dose-dependent manner

Q: What about the “ratio of CTL proenzyme in the cell” value (NRK cells [2]) of the same compound?
A: the ratio of proenzyme increased

Q: And the “ratio of intracellular cathepsin D proenzyme” value (NRK cells [2])?
A: increased in a dose-dependent manner

Q: And the “granular staining with LC3 in the cell” value (NRK cells [7]; 1-24 hr, confocal laser microscope)?
A: increased in a time-dependent manner

Q: What about the LC3-II level (NRK cells [7]; 12 and 24 hr) of the same compound?
A: remarkably increased

Q: What about the LC3-II level (NRK cells [7]; 3 hr) of the same compound?
A: increased

Q: What about the “alteration of MPR localization” value (NRK cells [4]) of the same compound?
A: altered

Q: And the “alteration of MPR localization” value (NRK cells [4]; rat, 24 h)?
A: >10 µM

Q: How did the β-hex activity increase (NRK cells [1]; rat, 24 h) turn out when CN(C)CCCN1c2ccccc2CCc2ccccc21 [imipramine] was run?
A: >40 µM

Q: With CCN(CC)CCCC(C)Nc1ccnc2cc(Cl)ccc12 (stereo not drawn) [chloroquine] as the compound, how does the β-hex activity increase (NRK cells [1]; rat, 24 h) read?
A: >5 µM

Q: And the “cathepsin D proenzyme in the medium” value (NRK cells [2])?
A: the amount of proenzyme secreted in the medium increased

Q: And the “ratio of intracellular cathepsin D proenzyme” value (NRK cells [2])?
A: the ratio of intracellular proenzyme increased

Q: What about the “alteration of MPR localization” value (NRK cells [4]; rat, 24 h) of the same compound?
A: >5 µM
